The structures appear in SMILES notation. Where only a bound is given, the exact number is not on record here.

The target of the first assay is T1, bovine cardiac myosin (Bos taurus, UniProt Q9BE39).
T1 construct: The source of cardiac myosin was from bovine heart in the form of skinned myofibrils; from tissue; host or cells: bovine heart, skinned myofibrils
T1 sequence (Q9BE39 whole entry): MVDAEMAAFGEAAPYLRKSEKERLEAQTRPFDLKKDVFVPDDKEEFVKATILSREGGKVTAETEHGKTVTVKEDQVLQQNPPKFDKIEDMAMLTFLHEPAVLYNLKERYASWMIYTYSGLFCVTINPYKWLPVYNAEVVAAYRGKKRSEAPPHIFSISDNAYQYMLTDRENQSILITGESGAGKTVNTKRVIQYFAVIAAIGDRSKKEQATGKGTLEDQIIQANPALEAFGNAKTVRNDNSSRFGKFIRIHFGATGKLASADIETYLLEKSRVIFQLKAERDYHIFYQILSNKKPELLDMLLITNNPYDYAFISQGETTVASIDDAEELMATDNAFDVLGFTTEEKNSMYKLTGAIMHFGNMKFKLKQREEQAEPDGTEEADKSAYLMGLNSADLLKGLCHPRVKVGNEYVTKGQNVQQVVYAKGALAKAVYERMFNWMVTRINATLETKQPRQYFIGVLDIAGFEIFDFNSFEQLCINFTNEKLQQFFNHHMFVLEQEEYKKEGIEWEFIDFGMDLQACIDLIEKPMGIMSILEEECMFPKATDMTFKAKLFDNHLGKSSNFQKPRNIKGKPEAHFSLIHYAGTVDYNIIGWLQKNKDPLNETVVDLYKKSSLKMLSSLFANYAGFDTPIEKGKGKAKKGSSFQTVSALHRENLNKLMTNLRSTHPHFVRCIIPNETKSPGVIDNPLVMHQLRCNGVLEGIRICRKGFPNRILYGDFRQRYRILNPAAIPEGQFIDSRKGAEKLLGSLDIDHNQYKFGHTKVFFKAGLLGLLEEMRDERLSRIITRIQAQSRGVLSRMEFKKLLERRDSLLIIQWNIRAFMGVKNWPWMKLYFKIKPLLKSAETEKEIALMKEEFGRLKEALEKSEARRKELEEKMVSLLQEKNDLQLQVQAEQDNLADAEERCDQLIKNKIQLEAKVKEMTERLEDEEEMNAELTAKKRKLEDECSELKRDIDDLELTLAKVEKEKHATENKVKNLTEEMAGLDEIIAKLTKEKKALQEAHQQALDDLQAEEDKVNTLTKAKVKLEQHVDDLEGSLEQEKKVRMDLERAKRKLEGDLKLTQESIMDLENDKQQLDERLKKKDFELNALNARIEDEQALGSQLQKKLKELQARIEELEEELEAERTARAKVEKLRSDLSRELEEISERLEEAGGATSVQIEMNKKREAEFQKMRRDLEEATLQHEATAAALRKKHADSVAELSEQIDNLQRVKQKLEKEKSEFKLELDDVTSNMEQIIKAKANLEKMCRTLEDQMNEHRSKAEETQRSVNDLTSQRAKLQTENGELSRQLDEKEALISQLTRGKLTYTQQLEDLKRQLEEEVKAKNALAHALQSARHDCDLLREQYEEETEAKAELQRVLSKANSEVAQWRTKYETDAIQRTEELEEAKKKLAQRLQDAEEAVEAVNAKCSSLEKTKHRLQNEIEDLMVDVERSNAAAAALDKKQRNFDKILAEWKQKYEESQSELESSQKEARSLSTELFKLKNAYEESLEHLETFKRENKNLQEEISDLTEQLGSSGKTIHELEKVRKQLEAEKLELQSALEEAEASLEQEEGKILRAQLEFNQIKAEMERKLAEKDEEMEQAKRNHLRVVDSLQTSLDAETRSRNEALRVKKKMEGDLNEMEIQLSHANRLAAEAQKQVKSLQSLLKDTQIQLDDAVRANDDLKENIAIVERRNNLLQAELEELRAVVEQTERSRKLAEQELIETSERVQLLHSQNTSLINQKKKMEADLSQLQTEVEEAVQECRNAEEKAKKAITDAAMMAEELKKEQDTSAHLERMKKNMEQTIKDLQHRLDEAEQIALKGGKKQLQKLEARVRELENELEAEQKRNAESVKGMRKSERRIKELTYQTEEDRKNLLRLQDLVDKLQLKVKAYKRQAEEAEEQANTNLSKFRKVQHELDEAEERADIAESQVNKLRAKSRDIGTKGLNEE
T1 sequence (P85100 whole entry partner): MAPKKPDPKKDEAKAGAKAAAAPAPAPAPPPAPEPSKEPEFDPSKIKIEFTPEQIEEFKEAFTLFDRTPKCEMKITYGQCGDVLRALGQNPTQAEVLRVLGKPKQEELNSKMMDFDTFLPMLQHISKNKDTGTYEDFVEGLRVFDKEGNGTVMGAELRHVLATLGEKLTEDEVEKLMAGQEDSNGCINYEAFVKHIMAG
T1 sequence (Q3SZE5 whole entry partner): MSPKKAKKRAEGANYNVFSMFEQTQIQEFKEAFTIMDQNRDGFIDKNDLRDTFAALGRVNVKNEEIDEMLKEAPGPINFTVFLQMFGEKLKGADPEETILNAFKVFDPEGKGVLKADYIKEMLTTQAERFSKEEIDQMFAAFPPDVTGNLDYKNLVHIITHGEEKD
Briefly: Myosin inhibition assay (PK/LDH-coupled ATPase, bovine cardiac myofibrils). It counts as biochemical.
Settings: not given
The compound `CC(C)n1c(=O)cc(N[C@@H](C)Cc2ccc(F)cc2)[nH]c1=O` [Compound 51, (S)-6-((1-(4-fluorophenyl)propan-2-yl)amino)-3-isopropylpyrimidine-2,4(1H,3H)-dione] had an IC50 of 1000 to 15000 nM.

Staying with this assay, now noted: bovine cardiac myofibrils, calcium giving 50% activation (pCa50); read-out: Biochemical Activity (pCa50).
In the case of `CC(C)n1c(=O)cc(N[C@@H](C)c2cccc(Br)c2)[nH]c1=O` [Compound 35], the IC50 was under 1000 nM.
On the same count and under the same terms, next, `CC[C@H](Nc1cc(=O)n(CC)c(=O)[nH]1)c1ccccc1` [Compound 36]: 1000 to 15000 nM; `C[C@H](Nc1cc(=O)n(-c2ccccn2)c(=O)[nH]1)c1ccccc1` [Compound 38]: under 1000 nM.
As to `C[C@H](Nc1cc(=O)n([C@H](C)CO)c(=O)[nH]1)c1ccccc1` [Compound 54, 3-((R)-1-hydroxypropan-2-yl)-6-(((S)-1-phenylethyl)amino)pyrimidine-2,4(1H,3H)-dione], the IC50 was in the range of 1000 to 15000 nM.
Same read-out and setting: the same measure for `C[C@H](Nc1cc(=O)n(Cc2ccccc2)c(=O)[nH]1)c1ccccc1` [Compound 57, (S)-3-benzyl-6-((1-phenylethyl)amino)pyrimidine-2,4(1H,3H)-dione]: 1000 to 15000 nM.

Still in this assay, the particulars now being: bovine cardiac myofibrils, calcium giving 75% activation (pCa75); read-out: Biochemical Activity (pCa75).
On to `CC(C)n1c(=O)[nH]c(N[C@@H](C)c2ccccc2)c(Br)c1=O` [Compound 3, (S)-5-Bromo-3-isopropyl-6-((1-phenylethyl)amino)pyrimidine-2,4(1H,3H)-dione], for which the IC50 is under 1000 nM.
As for `CC(C)n1c(=O)[nH]c(N[C@@H](C)c2cccc(Cl)c2)c(F)c1=O` [Compound 4, (S)-6-((1-(3-Chlorophenyl)ethyl)amino)-5-fluoro-3-isopropylpyrimidine-2,4(1H,3H)-dione], the IC50 is under 1000 nM.
Consider `CC(C)n1c(=O)cc(N[C@@H](C)c2cc(F)cc(F)c2)[nH]c1=O` [Compound 5, (S)-6-((1-(3,5-Difluorophenyl)ethyl)amino)-3-isopropylpyrimidine-2,4(1H,3H)-dione], for which the IC50 was under 1000 nM.
On the same count and under the same terms, the same measure for `CC(C)n1c(=O)cc(N[C@H](c2ccccc2)C2CC2)[nH]c1=O` [Compound 6, (S)-6-((Cyclopropyl(phenyl)methyl)amino)-3-isopropylpyrimidine-2,4(1H,3H)-dione]: under 1000 nM.
Same read-out and setting: next, `COc1cccc([C@@H](Nc2cc(=O)n(C(C)C)c(=O)[nH]2)C2CC2)c1` [Compound 7, (S)-6-((cyclopropyl(3-methoxyphenyl)methyl)amino)-3-isopropylpyrimidine-2,4(1H,3H)-dione]: under 1000 nM; `CC(C)n1c(=O)cc(N[C@H](c2ccccc2)C2CCC2)[nH]c1=O` [Compound 8, (S)-6-((Cyclobutyl(phenyl)methyl)amino)-3-isopropylpyrimidine-2,4(1H,3H)-dione]: under 1000 nM; `C[C@H](Nc1cc(=O)n(C2CCOCC2)c(=O)[nH]1)c1ccccc1` [Compound 9, (S)-6-((1-phenylethyl)amino)-3-(tetrahydro-2H-pyran-4-yl)pyrimidine-2,4(1H,3H)-dione]: under 1000 nM.
Same read-out and setting: the same measure for `COc1cccc([C@H](C)Nc2cc(=O)n(C3CCOCC3)c(=O)[nH]2)c1` [Compound 10, (S)-6-((1-(3-methoxyphenyl)ethyl)amino)-3-(tetrahydro-2H-pyran-4-yl)pyrimidine-2,4(1H,3H)-dione]: under 1000 nM; for `C[C@H](Nc1cc(=O)n(C2CCOC2)c(=O)[nH]1)c1ccccc1` (stereo partly drawn) [Compound 11, 6-(((S)-1-phenylethyl)amino)-3-(tetrahydrofuran-3-yl)pyrimidine-2,4(1H,3H)-dione]: 1000 to 15000 nM; for `COC(=O)N1CCC(n2c(=O)cc(N[C@@H](C)c3ccccc3)[nH]c2=O)CC1` [Compound 13, (S)-methyl 4-(2,6-dioxo-4-(1-phenylethylamino)-2,3-dihydropyrimidin-1(6H)-yl)piperidine-1-carboxylate]: under 1000 nM.
As to `CC[C@@H](C)n1c(=O)cc(N[C@@H](C)c2cccc(OC)c2)[nH]c1=O` [Compound 14, 3-(R)-sec-butyl-6-((S)-1-(3-methoxyphenyl)ethylamino)pyrimidine-2,4(1H,3H)-dione], the IC50 was under 1000 nM.
The same measure, in the same setting: the same measure for `C[C@H](Nc1cc(=O)n(-c2cccnc2)c(=O)[nH]1)c1ccccc1` [Compound 15, (S)-6-(1-phenylethylamino)-3-(pyridin-3-yl)pyrimidine-2,4(1H,3H)-dione]: under 1000 nM; for `C[C@H](Nc1cc(=O)n(-c2ccon2)c(=O)[nH]1)c1ccccc1` [Compound 16, (S)-3-(Isoxazol-3-yl)-6-(1-phenylethylamino)pyrimidine-2,4(1H,3H)-dione]: 1000 to 15000 nM; for `CC(C)n1c(=O)cc(N[C@@H](C)c2cccc(-n3cccn3)c2)[nH]c1=O` [Compound 17, (S)-6-((1-(3-(1H-pyrazol-1-yl)phenyl)ethyl)amino)-3-isopropylpyrimidine-2,4(1H,3H)-dione]: under 1000 nM.
On the same count and under the same terms, next, `COc1cccc([C@H](C)Nc2cc(=O)n(C(C)C)c(=O)[nH]2)c1` [Compound 21]: under 1000 nM; `COc1ccccc1[C@H](C)Nc1cc(=O)n(C(C)C)c(=O)[nH]1` [Compound 22]: 1000 to 15000 nM; `CC[C@H](Nc1cc(=O)n(C(C)C)c(=O)[nH]1)c1ccccc1` [Compound 24]: under 1000 nM.
The same measure, in the same setting: the same measure for `Cc1c(N[C@@H](C)c2ccccc2)[nH]c(=O)n(C(C)C)c1=O` [Compound 25]: over 15000 nM.
For `CC(C)n1c(=O)cc(N[C@@H](C)c2ccccc2F)[nH]c1=O` [Compound 26], the IC50 is under 1000 nM.
Still for that read-out and setting: next, `CC(C)n1c(=O)cc(N[C@@H](C)c2cccc(Cl)c2)[nH]c1=O` [Compound 28]: under 1000 nM.
Still for that read-out and setting: the same measure for `COC[C@H](Nc1cc(=O)n(C(C)C)c(=O)[nH]1)c1ccccc1` [Compound 29]: under 1000 nM; for `CC(C)n1c(=O)cc(N[C@@H](C)c2ccc(F)cc2)[nH]c1=O` [Compound 30]: under 1000 nM; for `CC[C@H](Nc1[nH]c(=O)n(C(C)C)c(=O)c1F)c1ccccc1` [Compound 31]: under 1000 nM.
For `CC(C)n1c(=O)[nH]c(N[C@@H](C)c2cccc(F)c2)c(F)c1=O` [Compound 32], the IC50 is under 1000 nM.
On the same count and under the same terms, next, `COc1cccc([C@H](C)Nc2[nH]c(=O)n(C(C)C)c(=O)c2F)c1` [Compound 33]: under 1000 nM; `CC(C)n1c(=O)cc(N[C@@H](C)c2cc(F)ccc2F)[nH]c1=O` [Compound 34]: under 1000 nM; `CC(C)n1c(=O)cc(N[C@@H](C)c2cccc(Br)c2)[nH]c1=O` [Compound 35]: under 1000 nM.
On the same count and under the same terms, next, `C[C@H](Nc1cc(=O)n(C2CC2)c(=O)[nH]1)c1ccccc1` [Compound 37]: 1000 to 15000 nM.
Same read-out and setting: next, `C[C@H](Nc1cc(=O)n(-c2ccccn2)c(=O)[nH]1)c1ccccc1` [Compound 38]: under 1000 nM; `C[C@H](Nc1cc(=O)n(-c2ccn(C)n2)c(=O)[nH]1)c1ccccc1` [Compound 39]: under 1000 nM; `C[C@H](Nc1cc(=O)n(-c2ccno2)c(=O)[nH]1)c1ccccc1` [Compound 40]: under 1000 nM.
Regarding `CC(C)n1c(=O)cc(N[C@@H](C)c2cccc(-n3cncn3)c2)[nH]c1=O` [Compound 41], the IC50 was under 1000 nM.
Turning to `Cc1nccn1-c1cccc([C@H](C)Nc2cc(=O)n(C(C)C)c(=O)[nH]2)c1` [Compound 42], the IC50 is under 1000 nM.
Still for that read-out and setting: next, `CC(C)n1c(=O)cc(N[C@@H](C)c2cccc(N3CCOC3=O)c2)[nH]c1=O` [Compound 43]: under 1000 nM; `C[C@H](Nc1cc(=O)n(C2CCCCC2)c(=O)[nH]1)c1ccccc1` [Compound 44]: under 1000 nM.
In the case of `CCn1c(=O)cc(N[C@@H](C)c2ccccc2)[nH]c1=O` [Compound 46], the IC50 lay within 1000 to 15000 nM.
On the same count and under the same terms, the same measure for `C[C@H](Nc1cc(=O)n(C)c(=O)[nH]1)c1ccccc1` [Compound 47]: 1000 to 15000 nM.
Turning to `Cc1cccc([C@H](C)Nc2cc(=O)n(C(C)C)c(=O)[nH]2)c1` [Compound 50, (S)-3-isopropyl-6-((1-(m-tolyl)ethyl)amino)pyrimidine-2,4(1H,3H)-dione], the IC50 is under 1000 nM.
The same measure, in the same setting: the same measure for `CC(C)n1c(=O)cc(N[C@H](c2ccccc2)C(F)(F)F)[nH]c1=O` [Compound 52, (R)-3-isopropyl-6-((2,2,2-trifluoro-1-phenylethyl)amino)pyrimidine-2,4(1H,3H)-dione]: under 1000 nM; for `C[C@H](Nc1cc(=O)n([C@H](C)COCc2ccccc2)c(=O)[nH]1)c1ccccc1` [Compound 53, 3-((R)-1-(benzyloxy)propan-2-yl)-6-(((S)-1-phenylethyl)amino)pyrimidine-2,4(1H,3H)-dione]: 1000 to 15000 nM; for `C[C@H](Nc1cc(=O)n([C@H](C)CO)c(=O)[nH]1)c1ccccc1` [Compound 54, 3-((R)-1-hydroxypropan-2-yl)-6-(((S)-1-phenylethyl)amino)pyrimidine-2,4(1H,3H)-dione]: 1000 to 15000 nM.
Regarding `CC(C)n1c(=O)cc(N[C@@H](C)c2cccc(C(F)(F)F)c2)[nH]c1=O` [Compound 55, (S)-3-isopropyl-6-((1-(3-(trifluoromethyl)phenyl)ethyl)amino) pyrimidine-2,4(1H,3H)-dione], the IC50 was under 1000 nM.
Still for that read-out and setting: next, `CC(C)n1c(=O)cc(N[C@@H](C)c2ccccc2C#N)[nH]c1=O` [Compound 56, (S)-3-isopropyl-6-((1-(2-cyanophenyl)ethyl)amino)pyrimidine-2,4(1H,3H)-dione]: over 15000 nM.
The same measure, in the same setting: the same measure for `C[C@H](Nc1cc(=O)n(-c2c(F)cccc2F)c(=O)[nH]1)c1ccccc1` [Compound 58, (S)-3-(2,6-difluorophenyl)-6-((1-phenylethyl)amino)pyrimidine-2,4(1H,3H)-dione]: under 1000 nM.
Consider `CC(C)n1c(=O)cc(N[C@@H](C)c2c(F)cccc2F)[nH]c1=O` [Compound 59, (S)-6-((1-(2,6-difluorophenyl)ethyl)amino)-3-isopropylpyrimidine-2,4(1H,3H)-dione], for which the IC50 was under 1000 nM.

The same assay, now with this note: pCa75; assay conducted using 0.5 μM myosin, IC50 values below 1.0 μM are approximate; read-out: IC50 (pCa75).
For the compound `COc1cccc([C@@H](C)Nc2cc(=O)n(C(C)C)c(=O)[nH]2)c1` [Compound 20R], the IC50 amounted to 19600 nM.
On the same count and under the same terms, the same measure for `COc1cccc([C@H](C)Nc2cc(=O)n(C(C)C)c(=O)[nH]2)c1` [Compound 21]: 390 nM.
`CC(C)n1c(=O)cc(N[C@@H](C)c2c(F)cccc2F)[nH]c1=O` [Compound 59, (S)-6-((1-(2,6-difluorophenyl)ethyl)amino)-3-isopropylpyrimidine-2,4(1H,3H)-dione]: the IC50 was determined as 450 nM.
Take `CC(C)n1c(=O)cc(N[C@H](C)c2c(F)cccc2F)[nH]c1=O` [Compound 60R, (R)-6-((1-(2,6-difluorophenyl)ethyl)amino)-3-isopropylpyrimidine-2,4(1H,3H)-dione]: the IC50 was over 39200 nM.

The values above are taken from patent publication USRE50050E1, “Pyrimidinedione compounds” (MyoKardia, Inc., priority 2013, dated 2024).
